Earlier results as cited in patent US11337939B2 (PULMONEM INC., priority 2020, dated 2022).

Tests used:
airway inflammation = settings: ferret
[1] = system: human bronchial epithelial cells; settings: stimulated with lipopolysaccharide

## Nc1ccc(S(=O)(=O)c2ccc(N)cc2)cc1 [Dapsone, 4,4′-diaminodiphenyl sulfone]
From the gastrointestinal tract
  absorbed from the gastrointestinal tract: 70%-80%
serum
  time to peak serum concentration: 2 to 6 h
Airway inflammation
  airway inflammation: resolves airway inflammation
[1]
  IL-8 secretion: inhibits IL-8 secretion
